Assay results reported in ChEMBL document CHEMBL1201862, “PubChem BioAssay data set” (2004).
Values belong to the compound of their own block, whether it stands above or below them. Active and inactive are the calls of the source.

Assays:
Type in all cases: functional
[1] = target: Melanin-concentrating hormone receptor 1 (Homo sapiens, UniProt Q99705); experiment: Late-stage fluorescence-based counterscreen for antagonists of the G-protein coupled receptor 7 (GPR7): cell-based dose response assay to identify antagonists of the melanin-concentrating hormone receptor 1 (MCHR1) Set 6.
[2] = target: Neuropeptides B/W receptor type 1 (Homo sapiens, UniProt P48145); experiment: GPR7 antagonist potency, late-stage follow-up, cell-based, fluorescence, dose response, set 6 (AID 588583)
[3] = target: Dual specificity protein kinase CLK2 (Homo sapiens, UniProt P49760)
[4] = target: Dual specificity mitogen-activated protein kinase kinase 1 (Homo sapiens, UniProt Q02750); experiment: Navigating the Kinome. Panel member name: MAP2K1
[5] = target: Phosphorylase b kinase gamma catalytic chain, liver/testis isoform (Homo sapiens, UniProt P15735);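 also: PHKG2 measured as one member of a kinome-wide kinase panel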
[6] = target: RAC-gamma serine/threonine-protein kinase (Homo sapiens, UniProt Q9Y243)
[7] = target: Testis-specific serine/threonine-protein kinase 2 (Homo sapiens, UniProt Q96PF2);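 also: part of the Navigating the Kinome panel, target entry STK22B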
[8] = target: SRSF protein kinase 1 (Homo sapiens, UniProt Q96SB4);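 also: measured as one member of a kinome-wide kinase profiling panel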
[9] = target: Casein kinase II subunit alpha (Homo sapiens, UniProt P68400)
[10] = target: Calcium/calmodulin-dependent protein kinase type II subunit delta (Homo sapiens, UniProt Q13557)
[11] = target: Tyrosine-protein kinase JAK3 (Homo sapiens, UniProt P52333)
[12] = target: Casein kinase I isoform gamma-1 (Homo sapiens, UniProt Q9HCP0);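 also: measured as the CSNK1G1 member of a kinome profiling panel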
[13] = target: Proto-oncogene tyrosine-protein kinase ROS (Homo sapiens, UniProt P08922);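 also: ROS1 tested as one member of a kinome-wide kinase panel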
[14] = target: Testis-specific serine/threonine-protein kinase 1 (Homo sapiens, UniProt Q9BXA7)
[15] = target: Homeodomain-interacting protein kinase 2 (Homo sapiens, UniProt Q9H2X6);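 also: measured within a kinome-wide kinase profiling panel, HIPK2 being one panel member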
[16] = target: Calcium/calmodulin-dependent protein kinase kinase 2 (Homo sapiens, UniProt Q96RR4); experiment: Navigating the Kinome. Panel member name: CAMKK2
[17] = target: Mitogen-activated protein kinase 13 (Homo sapiens, UniProt O15264)
[18] = target: Glycogen synthase kinase-3 alpha (Homo sapiens, UniProt P49840);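 also: GSK3A result taken from a broad kinome-wide kinase panel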
[19] = target: Casein kinase I isoform delta (Homo sapiens, UniProt P48730);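 also: measured as one member (CSNK1D) of a kinome panel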
[20] = target: Calcium/calmodulin-dependent protein kinase type II subunit beta (Homo sapiens, UniProt Q13554)
[21] = target: Mitogen-activated protein kinase 1 (Homo sapiens, UniProt P28482)
[22] = target: Focal adhesion kinase 1 (Homo sapiens, UniProt Q05397);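 also: measured as one member of a kinome panel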
[23] = target: Interleukin-1 receptor-associated kinase 1 (Homo sapiens, UniProt P51617);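 also: IRAK1 tested as one member of a kinome panel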
[24] = target: Platelet-derived growth factor receptor alpha (Homo sapiens, UniProt P16234); experiment: Navigating the Kinome. Panel member name: PDGFRA
[25] = target: Interleukin-1 receptor-associated kinase 4 (Homo sapiens, UniProt Q9NWZ3)
[26] = target: Cyclin-dependent kinase 19 (Homo sapiens, UniProt Q9BWU1); experiment: Navigating the Kinome. Panel member name: CDC2L6
[27] = target: Tyrosine-protein kinase Fyn (Homo sapiens, UniProt P06241)
[28] = target: Homeodomain-interacting protein kinase 4 (Homo sapiens, UniProt Q8NE63)
[29] = target: Serine/threonine-protein kinase pim-2 (Homo sapiens, UniProt Q9P1W9);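 also: value comes from a broad kinase panel profiling study in which PIM2 was one of the panel members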
[30] = target: Serine/threonine-protein kinase DCLK1 (Homo sapiens, UniProt O15075);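 also: affinity for DCLK1 (listed as DCAMKL1) measured as one member of a kinome-wide kinase profiling panel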
[31] = target: Cyclin-dependent kinase 7 (Homo sapiens, UniProt P50613);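 also: value comes from a kinome-wide kinase profiling panel in which CDK7 is one member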
[32] = target: Cyclin-dependent kinase 9 (Homo sapiens, UniProt P50750);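 also: value from the CDK9 entry of a kinome-spanning kinase panel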
[33] = target: BDNF/NT-3 growth factors receptor (Homo sapiens, UniProt Q16620);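 also: NTRK2 measured as one member of a broad kinome-wide kinase profiling panel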
[34] = target: Receptor tyrosine-protein kinase erbB-4 (Homo sapiens, UniProt Q15303);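 also: ERBB4 member of a kinome-wide kinase profiling panel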
[35] = target: Serine/threonine-protein kinase MRCK alpha (Homo sapiens, UniProt Q5VT25)
[36] = target: Dual specificity tyrosine-phosphorylation-regulated kinase 1A (Homo sapiens, UniProt Q13627);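 also: measured against DYRK1A as one member of a broad kinome profiling panel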
[37] = target: Calcium/calmodulin-dependent protein kinase type II subunit alpha (Homo sapiens, UniProt Q9UQM7); experiment: Navigating the Kinome. Panel member name: CAMK2A
[38] = target: Serine/threonine-protein kinase 3 (Homo sapiens, UniProt Q13188);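 also: measured as one member of a kinome-wide kinase panel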

Mitogen-activated protein kinase 13, sequence (O15264 whole entry): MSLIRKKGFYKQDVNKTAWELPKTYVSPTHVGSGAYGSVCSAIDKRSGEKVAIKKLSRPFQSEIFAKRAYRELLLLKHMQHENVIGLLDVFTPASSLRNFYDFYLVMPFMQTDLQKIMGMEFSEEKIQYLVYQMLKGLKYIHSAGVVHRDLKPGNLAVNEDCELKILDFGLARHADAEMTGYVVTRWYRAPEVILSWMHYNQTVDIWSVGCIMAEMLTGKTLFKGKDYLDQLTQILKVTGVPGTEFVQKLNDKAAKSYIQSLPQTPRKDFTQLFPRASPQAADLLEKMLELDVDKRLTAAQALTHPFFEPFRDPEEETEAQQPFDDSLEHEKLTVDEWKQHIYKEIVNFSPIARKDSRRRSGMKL
Melanin-concentrating hormone receptor 1, sequence (Q99705 whole entry): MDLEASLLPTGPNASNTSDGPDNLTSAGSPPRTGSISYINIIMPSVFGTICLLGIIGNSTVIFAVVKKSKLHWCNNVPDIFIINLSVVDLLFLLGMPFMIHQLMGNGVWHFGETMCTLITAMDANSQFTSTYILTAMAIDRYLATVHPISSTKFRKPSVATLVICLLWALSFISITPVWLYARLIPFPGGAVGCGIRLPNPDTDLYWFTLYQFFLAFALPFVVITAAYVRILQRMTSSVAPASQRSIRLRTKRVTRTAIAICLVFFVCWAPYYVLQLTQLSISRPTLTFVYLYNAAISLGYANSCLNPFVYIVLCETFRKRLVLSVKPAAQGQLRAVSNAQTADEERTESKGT
RAC-gamma serine/threonine-protein kinase, sequence (Q9Y243 whole entry): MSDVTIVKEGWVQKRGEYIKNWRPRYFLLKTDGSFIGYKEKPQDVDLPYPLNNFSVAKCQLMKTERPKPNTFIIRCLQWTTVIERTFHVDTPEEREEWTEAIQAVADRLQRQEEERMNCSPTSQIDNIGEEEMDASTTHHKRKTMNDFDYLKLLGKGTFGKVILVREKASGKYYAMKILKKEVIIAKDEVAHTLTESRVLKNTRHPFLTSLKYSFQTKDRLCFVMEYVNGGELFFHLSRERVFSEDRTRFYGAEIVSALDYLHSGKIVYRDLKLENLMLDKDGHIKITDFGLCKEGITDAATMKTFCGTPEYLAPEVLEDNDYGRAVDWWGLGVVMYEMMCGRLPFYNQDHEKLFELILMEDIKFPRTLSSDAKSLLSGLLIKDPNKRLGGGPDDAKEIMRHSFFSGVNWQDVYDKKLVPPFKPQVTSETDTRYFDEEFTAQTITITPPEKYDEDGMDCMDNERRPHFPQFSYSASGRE
Homeodomain-interacting protein kinase 2, sequence (Q9H2X6 whole entry): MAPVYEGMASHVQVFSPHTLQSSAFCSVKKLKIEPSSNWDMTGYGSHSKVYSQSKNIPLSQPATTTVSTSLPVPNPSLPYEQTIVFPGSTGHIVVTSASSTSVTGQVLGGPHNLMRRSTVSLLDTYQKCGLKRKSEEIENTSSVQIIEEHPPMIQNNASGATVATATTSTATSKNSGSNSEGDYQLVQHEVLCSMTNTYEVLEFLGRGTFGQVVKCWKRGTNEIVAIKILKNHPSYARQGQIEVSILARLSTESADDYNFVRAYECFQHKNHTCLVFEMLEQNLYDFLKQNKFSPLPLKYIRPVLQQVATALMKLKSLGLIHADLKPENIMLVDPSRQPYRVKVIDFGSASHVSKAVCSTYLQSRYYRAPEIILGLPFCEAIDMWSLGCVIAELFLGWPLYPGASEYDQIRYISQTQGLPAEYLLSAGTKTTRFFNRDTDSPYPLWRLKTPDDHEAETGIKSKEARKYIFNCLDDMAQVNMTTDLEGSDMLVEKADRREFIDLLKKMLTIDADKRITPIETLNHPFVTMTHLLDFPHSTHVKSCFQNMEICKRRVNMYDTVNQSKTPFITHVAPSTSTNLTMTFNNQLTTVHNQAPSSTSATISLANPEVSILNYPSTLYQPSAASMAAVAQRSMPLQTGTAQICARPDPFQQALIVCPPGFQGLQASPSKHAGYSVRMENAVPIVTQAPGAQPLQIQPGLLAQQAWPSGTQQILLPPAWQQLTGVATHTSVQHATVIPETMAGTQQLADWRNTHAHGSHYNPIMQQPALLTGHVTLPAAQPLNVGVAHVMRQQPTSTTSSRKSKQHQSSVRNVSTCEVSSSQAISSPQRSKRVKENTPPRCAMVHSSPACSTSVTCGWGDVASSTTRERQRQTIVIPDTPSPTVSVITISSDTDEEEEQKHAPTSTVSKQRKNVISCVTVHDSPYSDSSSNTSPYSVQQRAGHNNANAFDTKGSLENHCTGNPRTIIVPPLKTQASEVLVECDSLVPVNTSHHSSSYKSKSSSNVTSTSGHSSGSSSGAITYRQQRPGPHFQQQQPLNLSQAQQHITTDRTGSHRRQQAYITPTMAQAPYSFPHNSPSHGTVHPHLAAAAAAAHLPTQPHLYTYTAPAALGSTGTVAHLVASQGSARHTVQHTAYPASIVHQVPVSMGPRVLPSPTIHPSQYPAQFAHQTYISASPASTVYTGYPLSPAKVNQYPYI
Platelet-derived growth factor receptor alpha, sequence (P16234 whole entry): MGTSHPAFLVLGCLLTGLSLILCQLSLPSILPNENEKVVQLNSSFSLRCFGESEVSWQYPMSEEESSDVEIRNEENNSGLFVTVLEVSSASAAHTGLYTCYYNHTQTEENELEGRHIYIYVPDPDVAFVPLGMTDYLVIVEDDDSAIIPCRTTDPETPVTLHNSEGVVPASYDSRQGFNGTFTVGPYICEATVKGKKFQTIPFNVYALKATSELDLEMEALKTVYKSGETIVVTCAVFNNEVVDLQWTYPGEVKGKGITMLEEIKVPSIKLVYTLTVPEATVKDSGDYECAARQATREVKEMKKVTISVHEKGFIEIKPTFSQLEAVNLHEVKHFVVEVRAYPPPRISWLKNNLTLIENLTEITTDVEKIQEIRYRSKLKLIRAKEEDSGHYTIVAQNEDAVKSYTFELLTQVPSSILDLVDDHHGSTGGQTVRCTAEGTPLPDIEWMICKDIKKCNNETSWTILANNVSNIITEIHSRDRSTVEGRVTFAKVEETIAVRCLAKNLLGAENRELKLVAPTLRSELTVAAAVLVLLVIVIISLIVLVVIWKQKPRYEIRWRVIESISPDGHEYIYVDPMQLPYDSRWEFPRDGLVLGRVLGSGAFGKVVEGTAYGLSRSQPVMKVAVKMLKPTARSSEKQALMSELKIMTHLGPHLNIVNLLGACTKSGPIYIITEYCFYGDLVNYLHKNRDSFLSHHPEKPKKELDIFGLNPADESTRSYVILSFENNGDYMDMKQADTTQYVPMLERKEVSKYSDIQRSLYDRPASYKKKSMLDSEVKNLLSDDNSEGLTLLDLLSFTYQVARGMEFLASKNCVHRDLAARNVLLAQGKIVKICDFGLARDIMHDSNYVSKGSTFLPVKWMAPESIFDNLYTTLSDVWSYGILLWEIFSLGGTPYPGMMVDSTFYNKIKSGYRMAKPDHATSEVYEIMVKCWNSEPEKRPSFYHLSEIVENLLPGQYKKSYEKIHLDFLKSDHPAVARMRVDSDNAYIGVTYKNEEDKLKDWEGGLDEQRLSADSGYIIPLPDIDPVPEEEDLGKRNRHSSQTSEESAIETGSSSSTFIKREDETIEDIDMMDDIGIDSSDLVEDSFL
Cyclin-dependent kinase 19, sequence (Q9BWU1 whole entry): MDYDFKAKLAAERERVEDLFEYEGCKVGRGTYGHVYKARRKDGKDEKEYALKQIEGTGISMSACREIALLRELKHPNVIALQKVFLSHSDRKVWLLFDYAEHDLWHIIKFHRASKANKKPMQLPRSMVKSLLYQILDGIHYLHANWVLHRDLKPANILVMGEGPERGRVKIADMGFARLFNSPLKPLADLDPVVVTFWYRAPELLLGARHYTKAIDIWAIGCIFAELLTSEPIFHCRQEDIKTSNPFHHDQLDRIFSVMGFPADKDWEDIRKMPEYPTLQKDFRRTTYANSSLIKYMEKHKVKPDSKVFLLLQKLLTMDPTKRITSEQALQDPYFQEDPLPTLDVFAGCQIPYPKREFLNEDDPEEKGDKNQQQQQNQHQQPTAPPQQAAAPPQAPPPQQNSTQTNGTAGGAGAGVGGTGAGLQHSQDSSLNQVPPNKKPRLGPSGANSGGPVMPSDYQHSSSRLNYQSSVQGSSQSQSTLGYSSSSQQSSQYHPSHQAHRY
Dual specificity mitogen-activated protein kinase kinase 1, sequence (Q02750 whole entry, canonical isoform): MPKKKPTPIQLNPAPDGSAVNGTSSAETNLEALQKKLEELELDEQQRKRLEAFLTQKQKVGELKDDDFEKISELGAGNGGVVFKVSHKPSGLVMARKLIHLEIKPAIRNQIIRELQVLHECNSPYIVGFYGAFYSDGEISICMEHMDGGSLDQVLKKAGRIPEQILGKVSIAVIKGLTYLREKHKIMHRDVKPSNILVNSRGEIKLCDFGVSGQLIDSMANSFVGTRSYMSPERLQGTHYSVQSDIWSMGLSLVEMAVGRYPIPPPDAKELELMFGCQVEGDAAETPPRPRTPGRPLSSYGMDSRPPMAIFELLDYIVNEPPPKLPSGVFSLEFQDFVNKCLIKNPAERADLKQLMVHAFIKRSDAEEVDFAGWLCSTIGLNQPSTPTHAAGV
Dual specificity protein kinase CLK2, sequence (P49760 whole entry): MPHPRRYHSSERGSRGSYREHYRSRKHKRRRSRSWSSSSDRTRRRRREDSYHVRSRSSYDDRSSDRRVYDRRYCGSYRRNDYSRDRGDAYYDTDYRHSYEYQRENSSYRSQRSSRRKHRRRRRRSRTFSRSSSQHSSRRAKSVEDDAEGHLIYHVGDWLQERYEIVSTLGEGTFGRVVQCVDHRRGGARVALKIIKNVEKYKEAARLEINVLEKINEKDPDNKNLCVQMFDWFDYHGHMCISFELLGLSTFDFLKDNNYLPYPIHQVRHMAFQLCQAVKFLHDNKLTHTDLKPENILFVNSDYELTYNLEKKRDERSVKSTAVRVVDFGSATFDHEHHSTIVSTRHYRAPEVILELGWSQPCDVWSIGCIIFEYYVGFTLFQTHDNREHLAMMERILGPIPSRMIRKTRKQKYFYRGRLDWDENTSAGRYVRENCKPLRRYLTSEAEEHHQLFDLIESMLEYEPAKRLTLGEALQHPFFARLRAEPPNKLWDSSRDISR

IC50 [1]: 2.55 µM (active) | IC50 [2]: 2.55 µM (active)
SMILES: C=Cc1cnn(Cc2cccc3ccccc23)c(=O)c1C(C#N)c1ccccc1 (stereo not drawn)

Ki [3]: > 3.98 µM (inactive) | Ki [4]: 1.26 µM (active) | Ki [5]: > 5.01 µM (inactive) | Ki [6]: > 10 µM (inactive) | Ki [7]: > 1.58 µM (inactive) | Ki [8]: > 7.94 µM (inactive) | Ki [9]: > 6.31 µM (inactive) | Ki [10]: > 6.31 µM (inactive) | Ki [11]: > 5.01 µM (inactive) | Ki [12]: > 6.31 µM (inactive) | Ki [13]: 0.158 µM (active) | Ki [14]: > 1.58 µM (inactive) | Ki [15]: > 3.16 µM (inactive) | Ki [16]: > 2.51 µM (inactive) | Ki [17]: > 7.94 µM (inactive) | Ki [18]: > 3.98 µM (inactive) | Ki [19]: > 7.94 µM (inactive) | Ki [20]: > 7.94 µM (inactive) | Ki [21]: > 7.94 µM (inactive) | Ki [22]: > 6.31 µM (inactive) | Ki [23]: > 7.94 µM (inactive) | Ki [24]: > 0.501 µM (inactive) | Ki [25]: 2.51 µM (active) | Ki [26]: 0.2 µM (active) | Ki [27]: 3.16 µM (active) | Ki [28]: > 7.94 µM (inactive) | Ki [29]: > 1.58 µM (inactive) | Ki [30]: > 10 µM (inactive) | Ki [31]: > 3.98 µM (inactive) | Ki [32]: > 1.58 µM (inactive) | Ki [33]: 0.316 µM (active) | Ki [34]: > 3.98 µM (inactive) | Ki [35]: > 10 µM (inactive) | Ki [36]: > 2 µM (inactive) | Ki [37]: > 3.98 µM (inactive) | Ki [38]: > 2.51 µM (inactive)
SMILES: Cc1cc(Nc2cc(N3CCN(C)CC3)nc(Sc3ccc(NC(=O)C4CC4)cc3)n2)[nH]n1 [TOZASERTIB]
